Data reported in ChEMBL document CHEMBL1133317, “The solid phase synthesis of tetrahydroisoquinolines having cdc25B inhibitory activity” (Bioorg Med Chem Lett, 2000).

Each molecule was assayed against T1, M-phase inducer phosphatase 2 (Homo sapiens) (UniProt P30305) (assay: Inhibitory activity against Cell division cycle 25B at 100 uM).
T1 sequence (whole entry): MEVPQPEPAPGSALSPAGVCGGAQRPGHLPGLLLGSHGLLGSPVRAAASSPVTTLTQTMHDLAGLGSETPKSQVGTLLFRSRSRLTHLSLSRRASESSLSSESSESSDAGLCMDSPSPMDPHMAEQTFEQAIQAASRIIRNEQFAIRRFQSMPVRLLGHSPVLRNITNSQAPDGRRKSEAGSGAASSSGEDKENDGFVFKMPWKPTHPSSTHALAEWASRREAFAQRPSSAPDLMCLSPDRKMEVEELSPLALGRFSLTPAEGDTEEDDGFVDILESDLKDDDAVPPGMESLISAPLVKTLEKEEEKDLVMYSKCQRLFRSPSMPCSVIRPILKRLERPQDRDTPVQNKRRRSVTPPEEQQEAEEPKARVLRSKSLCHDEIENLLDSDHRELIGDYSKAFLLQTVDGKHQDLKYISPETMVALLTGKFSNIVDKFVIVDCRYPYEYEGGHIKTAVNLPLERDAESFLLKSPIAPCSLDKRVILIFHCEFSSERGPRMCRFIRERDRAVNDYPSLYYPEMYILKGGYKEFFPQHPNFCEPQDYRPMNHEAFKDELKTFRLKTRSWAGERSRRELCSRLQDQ

Row | SMILES | inhibition
1 | N#C/C(=C\c1ccccc1)C(=O)N1Cc2c(cc(I)c(OCCCCl)c2I)C[C@H]1C(=O)O | 11%
2 | O=C(O)[C@@H]1Cc2cc(I)c(OCc3ccc(Cl)cc3Cl)c(I)c2CN1C(=O)/C=C/c1ccccc1F | 32%
3 | N#C/C(=C\c1ccccc1)C(=O)N1Cc2c(cc(I)c(O)c2I)C[C@H]1C(=O)O | 12%
4 | C/C(=C\c1ccccc1)C(=O)N1Cc2c(cc(I)c(OCCCCl)c2I)C[C@H]1C(=O)O | 12%

Next, values leading:

Row | inhibition | SMILES
5 | 28% | COc1cccc(COc2c(I)cc3c(c2I)CN(C(=O)/C=C/c2ccccc2C(F)(F)F)[C@H](C(=O)O)C3)c1
6 | 34% | COc1cccc(COc2c(I)cc3c(c2I)CN(C(=O)/C=C/c2ccccc2F)[C@H](C(=O)O)C3)c1
7 | 41% | COc1cccc(COc2c(I)cc3c(c2I)CN(C(=O)/C=C/c2cccc(F)c2)[C@H](C(=O)O)C3)c1
